{
  "source": "paper PMC6934184",
  "about": "“Selective DNA-PKcs inhibition extends the therapeutic index of localized radiotherapy and chemotherapy” (The Journal of Clinical Investigation, 2019)",
  "target": "T1, ACVR2A (Homo sapiens, UniProt P27037)",
  "T1 construct": "purchased Thermo Fisher Scientific (Life Technologies) SelectScreen",
  "T1 sequence (P27037 20-513)": "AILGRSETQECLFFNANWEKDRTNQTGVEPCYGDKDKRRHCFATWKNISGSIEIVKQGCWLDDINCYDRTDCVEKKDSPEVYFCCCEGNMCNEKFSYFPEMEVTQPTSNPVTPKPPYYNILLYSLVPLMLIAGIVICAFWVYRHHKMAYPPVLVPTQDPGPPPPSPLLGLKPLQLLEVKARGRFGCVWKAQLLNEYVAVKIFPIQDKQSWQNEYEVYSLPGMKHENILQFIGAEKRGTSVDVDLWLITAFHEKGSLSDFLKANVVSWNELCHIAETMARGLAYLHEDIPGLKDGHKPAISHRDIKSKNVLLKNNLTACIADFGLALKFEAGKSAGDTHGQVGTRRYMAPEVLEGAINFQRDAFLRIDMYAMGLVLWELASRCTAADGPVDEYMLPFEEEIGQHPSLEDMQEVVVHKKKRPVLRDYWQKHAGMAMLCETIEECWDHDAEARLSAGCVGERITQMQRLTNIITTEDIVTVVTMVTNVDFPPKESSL",
  "test": "SelectScreen LanthaScreen",
  "type": "binding",
  "conditions": "read-out: % displacement",
  "outline": "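SelectScreen broad panel; activity (Z'LYTE, Adapta) plus binding formats. ATP: Km app for CSF1R Z'LYTE; 10 for CAMK1 Adapta. Readout = % per kinase.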",
  "data": [
    {"compound": "CN(C(=O)CN1CCOCC1)c1ccc2sc3c(-c4cccc5c(=O)cc(N6CC7CCC(C6)O7)oc45)cccc3c2c1", "note": "[NU5455]", "values": [
      {"measurement": "inhibition at 1 µM", "value": 2.5, "unit": "%"}
    ]}
  ]
}
